From patent US6448262B1, “Pesticidal and parasiticidal use of 2-(substituted thio) thiazolo-[4,5-b]pyridine compounds” (American Cyanamid Company, priority 1998, dated 2002)
Like-named read-outs stand apart in the source and are kept apart here.

Legend:
Format in all cases: in vivo
C. elegans = test: Evaluation of test compounds against C. elegans; parameters: key: 9: complete kill in 4 hours; 8: complete kill in 24 hours; 7: markedly reduced motility in approximately 95% of worms in 24 hours; 0: normal motility, same as controls; details: 300 ppm; observed at 4 and 24 hours post-immersion
Protocol: Evaluation of Test Compounds Against C. elegans Cultures of C. elegans (Bristol strain from J. Lewis) are maintained on E. coli lawns on NG Agar Plates at […]. New cultures are established weekly. Nematodes for testing are washed from cultures using Na buffer. Compounds are dissolved in 80% acetone. The test material is micropipetted (25 μl) into a single well of a 96-well sterile tissue culture plate and the solvent allowed to evaporate. A freshly prepared volume (50 μl) of C. elegans in Na buffer is micropipetted into each treated well and several control wells per plate. Plates are incubated at 20° C. Observations for efficacy are made under a dissecting microscope at 4 and 24 hours post-immersion. Immediately prior to reading the plate, it is gently tapped to stimulate the movement of the worms. Activity is judged subjectively, but semi-quantitatively, based on the drug effects on motility of the adults and larvae.

[1] = test system: Aphis gossypii, cotton aphid; test: Cotton aphid (CA) cotyledon dip test; details: 300 ppm; mortality counts after 5 days
Text: (§1) Subsequent dilutions are made with water as needed.
Aphis gossypii, Cotton Aphid (CA)
Cotton plants at the cotyledon stage are selected and cut back to one plant per pot. A heavily infested leaf is taken from the main colony and placed on top of each cotyledon. The aphids are allowed to transfer to the host plant overnight. At the time of test treatment, the leaf used to transfer the aphids is removed and discarded. The cotyledons are dipped in the test solution and allowed to dry. After 5 days, mortality counts are made.

[2] = test system: Spodoptera eridania, 2nd instar larvae, southern armyworm; test: Southern armyworm (SAW) 2nd instar larvae leaf dip test; details: 300 ppm; observations at 5 days
Text: as §1
Spodoptera eridania, 2nd Instar Larvae, Southern Armyworm (SAW)
A Sieva lima bean leaf expanded to 7-8 cm in length is dipped in the test solution with agitation for 3 seconds and allowed to dry in a hood. The leaf is then placed in a 100×10 mm petri dish containing a damp filter paper on the bottom and ten 2nd instar caterpillars. At 5 days, observations are made of mortality, reduced feeding, or any interference with normal molting.

[3] = test system: Spodoptera eridania, eggs-southern armyworm; test: Southern armyworm eggs (SAW-Eggs) treated diet test; details: 3000 ppm; mortality counts after 7 days
Protocol: as §1
(§2) Spodoptera eridania, Eggs-southern Armyworm and Diabrotica undecimpunctata howardi, Eggs-southern Corn Rootworm (SAW-Eggs) and (SCR-Eggs)
(§3) Wells containing artificial diet are treated with the test solutions and dried. The appropriate insect eggs are then placed in the wells. The wells are covered with vented, adhesive, clear plastic covers. After 7 days, mortality counts are made.

[4] = test system: Diabrotica undecimpunctata howardi, eggs-southern corn rootworm; test: Southern corn rootworm eggs (SCR-Eggs) treated diet test; details: 1000 ppm; mortality counts after 7 days
Protocol: as §1, §2, §3

[5] = test system: Tetranychus urticae (OP-resistant strain), 2-spotted spider mite; test: 2-spotted spider mite (TSM) plant dip test; details: 300 ppm; mortality counts after 2 days
Protocol: as §1
Tetranychus urticae (OP-resistant Strain), 2-spotted Spider Mite (TSM)
Sieva lima bean plants with primary leaves expanded to 7-8 cm are selected and cut back to one plant per pot. A small piece is cut from an infested leaf taken from the main colony and placed on each leaf of the test plants. This is done about 2 hours before treatment to allow the mites to move over to the test plant to lay eggs. The size of the cut, infested leaf is varied to obtain about 100 mites per leaf. At the time of test treatment, the piece of leaf used to transfer the mites is removed and discarded. The newly-infested plants are dipped in the test solution for 3 seconds with agitation and set in the hood to dry. After 2 days, one leaf is removed and mortality counts are made.

[6] = test system: Diabrotica virgifera virgifera Leconte, 2nd instar western corn rootworm; test: Western corn rootworm (WCR) soil jar test; details: 50 ppm; mortality counts after 5 days
Protocol: as §1
Diabrotica virgifera virgifera Leconte, 2nd Instar Western Corn Rootworm (WCR)
One cc of fine talc is placed in a 30 mL wide-mouth screw-top glass jar. One mL of the appropriate acetone test solution is pipetted onto the talc so as to provide 1.25 mg of active ingredient per jar. The jars are set under a gentle air flow until the acetone is evaporated. The dried talc is loosened, 1 cc of millet seed is added to serve as food for the insects and 25 mL of moist soil is added to each jar. The jar is capped and the contents thoroughly mixed mechanically. Following this, ten 2nd instar rootworms are added to each jar and the jars are loosely capped to allow air exchange for the larvae. The treatments are held for 5 days when mortality counts are made. Missing larvae are presumed dead, since they decompose rapidly and cannot be found. The concentrations of active ingredient used in this test correspond approximately to 50 kg/ha.

[7] = test system: Lucilia serricata first instar blowfly larvae; test: Ectoparasiticide evaluation in Lucilia serricata; details: rate 100 ppm; for mortality at 100 ppm: Lucilia
Protocol: Ectoparasiticide Evaluation of Test Compounds in Lucilia serricata
The test compound is dissolved in acetone to a concentration of 100 ppm. 200 μL is added to three 12 mm filter paper disks in 128 well assay trays and allowed to dry. Approximately 20 first instar blowfly larvae and 200 μL bovine serum are added to the disks. Wells are covered with plastic lids and incubated at about 27° C. Mortality is determined at 24 and 48 hours.

[8] = test system: Root-knot nematode, Meloidogyne incognita; details: potted tomato, scored 4 weeks after inoculation
Text: Soil Nematicide Assay Targeting Root-knot Nematode, Meloidogyne incognita on Potted Tomato
The test compound is solubilized in acetone and diluted with water to the required test concentration. Silty loam soil in a 3 inch pot with a 3-week-old tomato transplant is drenched with the test solution. Four thousand root-knot nematode Meloidogyne incognita J2 larvae are dispensed in a aqueous suspension onto the soil. The pots are kept in the greenhouse and 4 weeks following inoculation of the pots, plant roots are washed free of soil and scored for the degree of root galling using the root-knot galling index identified below.

[9] = 24 hr, read-out: Percent Mortality 24 hr
[10] = 48 hr, read-out: Percent Mortality 48 hr

Question: How did the “C. elegans activity rating (motility of adults and larvae)” value (shortened to “C. elegans activity rating”) (C. elegans) turn out when `CCOC(=O)C(C)Sc1nc2ncccc2s1` (centres unmarked) [Example 6] was run?
Answer: Its value is 9.

Question: And the CA rating [1]?
Answer: The CA rating was 0.

Question: What about the SAW rating [2] of the same compound?
Answer: The SAW rating was 0.

Question: And the “SAW Eggs rating” value [3]?
Answer: The value was 9.

Question: And the “SCR Eggs rating” value [4]?
Answer: The value was 0.

Question: What about the TSM rating [5] of the same compound?
Answer: The TSM rating was 0.

Question: And the WCR rating [6]?
Answer: Its WCR rating is 0.

Question: What about the “Percent Mortality 24 hr” value ([7]; 24 hr) of the same compound?
Answer: The value was 0%.

Question: And the “Percent Mortality 48 hr” value ([7]; 48 hr)?
Answer: Its value is 0%.

Question: `CCOC(=O)CSc1nc2ncccc2s1` [Example 5] was tested. Which “C. elegans activity rating” value (C. elegans) did it give?
Answer: The value was 9.

Question: What about the CA rating [1] of the same compound?
Answer: Its CA rating is 0.

Question: What about the SAW rating [2] of the same compound?
Answer: The SAW rating was 0.

Question: And the “SCR Eggs rating” value [4]?
Answer: Its value is 0.

Question: And the TSM rating [5]?
Answer: The TSM rating was 0.

Question: What about the WCR rating [6] of the same compound?
Answer: The WCR rating was 0.

Question: `FC(F)=C(F)CCSc1nc2ncccc2s1` [Example 1, 2-[(4,4,3-Trifluoro-3-butenyl)thio]thiazolo[4,5-b]pyridine] was tested. Which “Galling Index” value ([8]; rate 10 ppm soil drench) did it give?
Answer: Its value is 0 (0).

Question: And the “Galling Index” value ([8]; rate 25 ppm soil drench)?
Answer: Its value is 0^1 (0).

Question: And the “Galling Index” value ([8]; rate 50 ppm soil drench)?
Answer: The value was 0^1 (0).

Question: What about the “C. elegans activity rating” value (C. elegans) of the same compound?
Answer: The value was 7.

Question: And the CA rating [1]?
Answer: Its CA rating is 0.

Question: And the SAW rating [2]?
Answer: The SAW rating was 0.

Question: And the “SAW Eggs rating” value [3]?
Answer: Its value is 8.

Question: What about the “SCR Eggs rating” value [4] of the same compound?
Answer: The value was 9.

Question: What about the TSM rating [5] of the same compound?
Answer: The TSM rating was 0.

Question: What about the WCR rating [6] of the same compound?
Answer: Its WCR rating is 0.

Question: And the mortality at 100 ppm [7, 9]?
Answer: Its mortality at 100 ppm is 100%.

Question: And the mortality at 100 ppm [7, 10]?
Answer: Its mortality at 100 ppm is 100%.

Question: How did the “C. elegans activity rating” value (C. elegans) turn out when `C=CCSc1nc2ncccc2s1` [Example 2] was run?
Answer: The value was 0.

Question: And the CA rating [1]?
Answer: The CA rating was 0.

Question: And the SAW rating [2]?
Answer: Its SAW rating is 0.

Question: And the “SAW Eggs rating” value [3]?
Answer: Its value is 0.

Question: What about the “SCR Eggs rating” value [4] of the same compound?
Answer: The value was 0.

Question: What about the TSM rating [5] of the same compound?
Answer: Its TSM rating is 0.

Question: What about the WCR rating [6] of the same compound?
Answer: Its WCR rating is 1.

Question: And the “Percent Mortality 24 hr” value ([7]; 24 hr)?
Answer: The value was 0%.

Question: And the “Percent Mortality 48 hr” value ([7]; 48 hr)?
Answer: Its value is 0%.

Question: Which results are given for `COC(=O)CSc1nc2ncccc2s1` [Example 4]?
Answer: C. elegans activity rating (motility of adults and larvae) (C. elegans): 9; CA rating [1]: 0; SAW rating [2]: 0; SAW Eggs rating [3]: 0; SCR Eggs rating [4]: 0; TSM rating [5]: 0; WCR rating [6]: 0

Question: What does the source list for `FC(F)(Br)Sc1nc2ncccc2s1` [Example 7, 2-[(Bromodifluoromethyl)thio]thiazolo[4,5-b]pyridine]?
Answer: CA rating [1]: 0; SAW rating [2]: 0; SAW Eggs rating [3]: 9; SCR Eggs rating [4]: 9; TSM rating [5]: 5; WCR rating [6]: 9; mortality at 100 ppm [7, 9]: 80%; mortality at 100 ppm [7, 10]: 100%

Question: `FC(F)Sc1nc2ncccc2s1` [Example 8, 2-[(Difluoromethyl)thio]thiazolo[4,5-b]pyridine] was tested. Which CA rating [1] did it give?
Answer: Its CA rating is 3.

Question: And the SAW rating [2]?
Answer: Its SAW rating is 0.

Question: What about the “SAW Eggs rating” value [3] of the same compound?
Answer: The value was 9.

Question: And the “SCR Eggs rating” value [4]?
Answer: Its value is 9.

Question: What about the TSM rating [5] of the same compound?
Answer: Its TSM rating is 8.

Question: And the WCR rating [6]?
Answer: Its WCR rating is 9.

Question: And the mortality at 100 ppm [7, 9]?
Answer: Its mortality at 100 ppm is 0%.

Question: What about the mortality at 100 ppm [7, 10] of the same compound?
Answer: Its mortality at 100 ppm is 0%.
